Experimental data reported in patent publication US11905230B2, “Phenoxyacetic acid derivatives, preparation method thereof and use thereof as medicament” (CHINA PHARMACEUTICAL UNIVERSITY, priority 2017, dated 2024).
Blank lines part the entries; values can stand above or below the molecule they belong to.

Assays:
hGPR40 receptor = hGPR40 receptor (Homo sapiens (Human), UniProt O14842); assay: agonistic activity on hGPR40-CHO stably transfected cells (Fluo-4 / FLIPR); assay type: cell-based; details: for activation at 0.1 µM / Agonistic activity at 100 nM (%): 100 nM, relative to linoleic acid well; for EC50: mean ± SD of three determinations
Protocol: Experimental example 1 The agonistic activity of the compounds of the present invention on hGPR40-CHO stably transfected cells
The present invention used the following method to determine the GPR40 agonistic activity of the compounds of the invention:
hGPR40-CHO stably transfected cells were seeded into a 96-well plate at a density of 3×10^4/well, and incubated overnight in a 37° C., 5% CO2 cell incubator; the medium was discarded, 100 μl of HBSS was added to each well, and 100 μl of Fluo-4 dye solution containing Probenecid was added and incubated at 37° C. for 90 min. After the incubation, the Fluo-4 dye solution was sucked out, 100 μl of HBSS buffer was added, and the dye was washed away; 100 μl of HBSS containing Probenecid was added to each well, and incubated at 37° C. for 10 min; different concentrations of drugs were added to each well of the 96-well plate and FLIPR (Molecular Devices) was used for readings according to the parameter setting table. The experimental results were analyzed.

[1] = Evaluation of hepatotoxicity: serum ALT, AST and TBIL after 4 weeks of dosing; assay type: in vivo; details: for AST, ALT and TBIL compared with STZ (blank) group (in words): 4 weeks of dosing; for ALT (IU/L) / AST (IU/L) / TBIL (IU/L): serum, once a day for consecutive 4 weeks, x ± SD, n = 6
Protocol: Experimental example 3 Evaluation of hepatotoxicity of the compounds of the present invention:
The test compounds were administered once a day for consecutive 4 weeks, blood was taken, and the contents of alanine aminotransferase (ALT), aspartate aminotransferase (AST), and total bilirubin (TBIL) were measured.

normal mice = assay: Oral glucose tolerance test (OGTT) in normal mice; assay type: in vivo, Kunming mice; details: for blood glucose level at 15 min / blood glucose level at 0 min / blood glucose level at 30 min / blood glucose level at 60 min / blood glucose level at 120 min: 20 mg/kg by gavage, in mmol/L (unit assumed); for blood glucose level at 15 min: 15 min after glucose load; for blood glucose level at 0 min: 30 min after dosing, before glucose load; for blood glucose level at 30 min: 30 min after glucose load; for blood glucose level at 60 min: 60 min after glucose load; for blood glucose level at 120 min: 120 min after glucose load; for effect on oral glucose tolerance in mice (in words): OGTT in normal mice, 20 mg/kg
Protocol: Experimental example 2 In vivo hypoglycemic activity of the compounds of the present invention can be determined by using an assay system as described below:
The mice were fasted for 12 hours before experiment and water was taken freely, each group was administrated by gavage, blood was taken from the tail, and the blood glucose level was measured (recorded as −30 min).

Chain of hGPR40 receptor (O14842 whole entry): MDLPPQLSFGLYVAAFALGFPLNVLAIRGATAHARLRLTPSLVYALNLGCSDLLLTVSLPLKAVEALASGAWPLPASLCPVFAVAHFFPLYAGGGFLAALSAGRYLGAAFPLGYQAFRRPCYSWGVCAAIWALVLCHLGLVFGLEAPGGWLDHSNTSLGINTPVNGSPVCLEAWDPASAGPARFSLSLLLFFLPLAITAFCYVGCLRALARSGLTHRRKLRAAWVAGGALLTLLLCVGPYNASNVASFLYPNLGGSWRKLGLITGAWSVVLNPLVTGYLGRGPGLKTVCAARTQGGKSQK

- activation at 0.1 µM (hGPR40 receptor): 46%
Structure (SMILES): O=C(O)COc1ccc(NCc2cccc(-c3ccccc3)c2)cc1F [Compound I-11, 2-(4-(([1,1′-biphenyl]-3-methylene)amino)-2-fluorophenoxy)acetic acid]

- activation at 0.1 µM (hGPR40 receptor): 59%
- melting point: 128 to 131 °C
Structure (SMILES): CCOCOc1cc(C)c(-c2cccc(CNc3ccc(OCC(=O)O)cc3)c2)c(C)c1 [Compound I-41, 2-(4-((4′-(2-ethoxymethoxy)-2′,6′-dimethyl-[1,1′-biphenyl]-3-methylene)amino)phenoxy)acetic acid]

- Agonistic activity at 100 nM (%) (hGPR40 receptor): 65%
Structure (SMILES): Cc1cc(OCCCS(C)(=O)=O)cc(C)c1-c1cccc(COc2ccc3c(c2)OC[C@H]3CC(=O)O)c1 [TAK-875, reference compound]
- AST, ALT and TBIL compared with STZ (blank) group (in words) [1]: AST was higher than STZ group
- ALT (IU/L) [1]: 72.83 ± 8.4 IU/L
- AST (IU/L) [1]: 149.33 ± 15.6 IU/L
- TBIL (IU/L) [1]: 2.98 ± 0.4 IU/L
- blood glucose level at 15 min (normal mice; OGTT, n = 8): 9.68 ± 0.46
- blood glucose level at 0 min (normal mice; OGTT, n = 8): 4.53 ± 0.25
- blood glucose level at 30 min (normal mice; OGTT, n = 8): 8.61 ± 0.45
- blood glucose level at 60 min (normal mice; OGTT, n = 8): 5.47 ± 0.56
- blood glucose level at 120 min (normal mice; OGTT, n = 8): 4.46 ± 0.57

- activation at 0.1 µM (hGPR40 receptor): 68%
Structure (SMILES): COc1cc(C)c(-c2cccc(CNc3ccc(OCC(=O)O)c(F)c3)c2)c(C)c1 [Compound I-20, 2-(4-((4′-methoxy-2′,6′-dimethyl-[1,1′-biphenyl]-3-methylene)amino)-2-fluorophenoxy)acetic acid]

- melting point: 136 to 138 °C
Structure (SMILES): Cc1cc(OC2CCCCC2)cc(C)c1-c1cccc(CNc2ccc(OCC(=O)O)c(F)c2)c1 [Compound I-44, 2(2-fluoro-4-(((4′-(cyclohexyloxy)-2′,6′-dimethyl-[1,1′-biphenyl]-3-yl)methyl)amino)phenoxy)acetic acid]

- activation at 0.1 µM (hGPR40 receptor): 85%
- EC50 (hGPR40 receptor): 14.6 ± 3.7 nM
Structure (SMILES): CCOc1ccc(-c2cccc(CNc3ccc(OCC(=O)O)c(F)c3)c2)c(C)c1 [Compound I-13]
- AST, ALT and TBIL compared with STZ (blank) group (in words) [1]: equivalent to the blank group
- ALT (IU/L) [1]: 52.37 ± 5.3 IU/L
- AST (IU/L) [1]: 121.37 ± 13.2 IU/L
- TBIL (IU/L) [1]: 2.48 ± 0.5 IU/L
- effect on oral glucose tolerance in mice (in words) (normal mice): significantly improve oral glucose tolerance
- blood glucose level at 15 min (normal mice; OGTT, n = 8): 7.25 ± 0.58
- blood glucose level at 0 min (normal mice; OGTT, n = 8): 4.61 ± 0.35
- blood glucose level at 30 min (normal mice; OGTT, n = 8): 7.03 ± 0.89
- blood glucose level at 60 min (normal mice; OGTT, n = 8): 5.25 ± 0.72
- blood glucose level at 120 min (normal mice; OGTT, n = 8): 4.38 ± 0.37

- activation at 0.1 µM (hGPR40 receptor): 68%
Structure (SMILES): Cc1cc(OCCCS(C)(=O)=O)cc(C)c1-c1cccc(CNc2ccc(OCC(=O)O)c(F)c2)c1 [Compound I-12]

- activation at 0.1 µM (hGPR40 receptor): 80%
- EC50 (hGPR40 receptor): 18.4 ± 2.2 nM
Structure (SMILES): COc1ccc(-c2cccc(CNc3ccc(OCC(=O)O)c(F)c3)c2)c(C)c1 [Compound I-19]
- ALT (IU/L) [1]: 50.33 ± 4.6 IU/L
- AST (IU/L) [1]: 123.45 ± 7.8 IU/L
- TBIL (IU/L) [1]: 2.68 ± 0.3 IU/L
- blood glucose level at 15 min (normal mice; OGTT, n = 8): 9.08 ± 0.62
- blood glucose level at 0 min (normal mice; OGTT, n = 8): 4.45 ± 0.56
- blood glucose level at 30 min (normal mice; OGTT, n = 8): 8.21 ± 0.39
- blood glucose level at 60 min (normal mice; OGTT, n = 8): 5.23 ± 0.21
- blood glucose level at 120 min (normal mice; OGTT, n = 8): 4.41 ± 0.44

- melting point: 130 to 132 °C
Structure (SMILES): CCCCCCOc1cc(C)c(-c2cccc(CNc3ccc(OCC(=O)O)cc3)c2)c(C)c1 [Compound I-43, 2(4-(((4′-(hexyloxy)-2′,6′-dimethyl-[1,1′-biphenyl]-3-yl)methyl)amino)phenoxy)acetic acid]

- activation at 0.1 µM (hGPR40 receptor): 75%
- EC50 (hGPR40 receptor): 28.4 ± 2.8 nM
Structure (SMILES): CCCOc1ccc(-c2cccc(CNc3ccc(OCC(=O)O)c(F)c3)c2)c(C)c1 [Compound I-15]

- activation at 0.1 µM (hGPR40 receptor): 79%
Structure (SMILES): CCOc1ccc(-c2cccc(CNc3ccc(OCC(=O)O)cc3)c2)c(C)c1 [Compound I-31]

- melting point: 132 to 135 °C
Structure (SMILES): CCCCCCOc1cc(C)c(-c2cccc(CNc3ccc(OCC(=O)O)c(F)c3)c2)c(C)c1 [Compound I-42, 2(2-fluoro-4-(((4′-(hexyloxy)-2′,6′-dimethyl-[1,1′-biphenyl]-3-yl)methyl)amino)phenoxy)acetic acid]

- activation at 0.1 µM (hGPR40 receptor): 63%
Structure (SMILES): CC(C)c1ccccc1-c1cccc(CNc2ccc(OCC(=O)O)c(F)c2)c1 [Compound I-16]

The remaining lines, values behind:

Structure (SMILES): CCCOc1cc(C)c(-c2cccc(CNc3ccc(OCC(=O)O)c(F)c3)c2)c(C)c1 [Compound I-9, 2-(4-((4′-propoxy-2′,6′-dimethyl-[1,1′-biphenyl]-3-methylene)amino)-2-fluorophenoxy) acetic acid]
- activation at 0.1 µM (hGPR40 receptor): 67%

Structure (SMILES): Cc1cc(OC(F)(F)F)ccc1-c1cccc(CNc2ccc(OCC(=O)O)cc2)c1 [Compound I-30, 2-(4-((4′-trifluoromethoxy-2′-methyl-[1,1′-biphenyl]-3-methylene)amino)phenoxy)acetic acid]
- Agonistic activity at 100 nM (%) (hGPR40 receptor): 76%

Structure (SMILES): O=C(O)COc1ccc(NCc2cccc(-c3ccccc3C(F)(F)F)c2)cc1 [Compound I-28, 2-(4-((2′-trifluoromethyl-[1,1′-biphenyl]-3-methylene)amino)phenoxy)acetic acid]
- ALT (IU/L) [1]: 49.36 ± 7.8 IU/L
- AST (IU/L) [1]: 119.68 ± 7.3 IU/L
- TBIL (IU/L) [1]: 2.57 ± 0.5 IU/L
- Agonistic activity at 100 nM (%) (hGPR40 receptor): 81%
- EC50 (hGPR40 receptor): 17.9 ± 2.9 nM
- effect on oral glucose tolerance in mice (in words) (normal mice): significantly improve oral glucose tolerance
- blood glucose level at 15 min (normal mice; OGTT, n = 8): 8.59 ± 0.38
- blood glucose level at 0 min (normal mice; OGTT, n = 8): 4.56 ± 0.48
- blood glucose level at 30 min (normal mice; OGTT, n = 8): 7.43 ± 0.56
- blood glucose level at 60 min (normal mice; OGTT, n = 8): 5.30 ± 0.26
- blood glucose level at 120 min (normal mice; OGTT, n = 8): 4.21 ± 0.45
- blood glucose level at −30 min (normal mice; OGTT, fasted mice, before dosing, x ± SD, n = 8): 4.35 ± 0.36

Structure (SMILES): O=C(O)COc1ccc(NCc2cccc(-c3ccccc3Cl)c2)cc1F [Compound I-2, 2-(4-((2′-chloro-[1,1′-biphenyl]-3-methylene)amino)-2-fluorophenoxy)acetic acid]
- AST, ALT and TBIL compared with STZ (blank) group (in words) [1]: equivalent to the blank group
- ALT (IU/L) [1]: 47 ± 5.3 IU/L
- AST (IU/L) [1]: 118.43 ± 11.5 IU/L
- TBIL (IU/L) [1]: 2.61 ± 0.5 IU/L
- activation at 0.1 µM (hGPR40 receptor): 84%
- EC50 (hGPR40 receptor): 16.3 ± 4.6 nM
- effect on oral glucose tolerance in mice (in words) (normal mice): significantly improve oral glucose tolerance
- blood glucose level at 15 min (normal mice; OGTT, n = 8): 6.24 ± 0.39
- blood glucose level at 0 min (normal mice; OGTT, n = 8): 4.25 ± 0.38
- blood glucose level at 30 min (normal mice; OGTT, n = 8): 6.73 ± 0.29
- blood glucose level at 60 min (normal mice; OGTT, n = 8): 4.28 ± 0.37
- blood glucose level at 120 min (normal mice; OGTT, n = 8): 4.17 ± 0.52

Structure (SMILES): COCCOc1cc(C)c(-c2cccc(CNc3ccc(OCC(=O)O)c(F)c3)c2)c(C)c1 [Compound I-10]
- activation at 0.1 µM (hGPR40 receptor): 62%

Structure (SMILES): CCOc1cc(C)c(-c2cccc(CNc3ccc(OCC(=O)O)c(F)c3)c2)c(C)c1 [Compound I-1, 2-(4-((4′-ethoxy-2′,6′-dimethyl-[1,1′-biphenyl]-3-methylene)amino)-2-fluorophenoxy) acetic acid]
- activation at 0.1 µM (hGPR40 receptor): 79%

Structure (SMILES): O=C(O)COc1ccc(NCc2cccc(-c3ccccc3C(F)(F)F)c2)cc1F [Compound I-8, 2-(4-((2′-trifluoromethyl-[1,1′-biphenyl]-3-methylene)amino)-2-fluorophenoxy)acetic acid]
- AST, ALT and TBIL compared with STZ (blank) group (in words) [1]: equivalent to the blank group
- ALT (IU/L) [1]: 46.63 ± 6.2 IU/L
- AST (IU/L) [1]: 112.85 ± 17.76 IU/L
- TBIL (IU/L) [1]: 2.52 ± 0.3 IU/L
- activation at 0.1 µM (hGPR40 receptor): 86%
- EC50 (hGPR40 receptor): 11.7 ± 4.8 nM
- effect on oral glucose tolerance in mice (in words) (normal mice): significantly improve oral glucose tolerance
- blood glucose level at 15 min (normal mice; OGTT, n = 8): 6.73 ± 0.65
- blood glucose level at 0 min (normal mice; OGTT, n = 8): 4.46 ± 0.47
- blood glucose level at 30 min (normal mice; OGTT, n = 8): 6.82 ± 0.58
- blood glucose level at 60 min (normal mice; OGTT, n = 8): 5.17 ± 0.39
- blood glucose level at 120 min (normal mice; OGTT, n = 8): 4.26 ± 0.25

Structure (SMILES): Cc1ccc(-c2cccc(CNc3ccc(OCC(=O)O)c(F)c3)c2)c(Cl)c1 [Compound I-5, 2-(4-((2′-chloro-4′-methyl-[1,1′-biphenyl]-3-methylene)amino)-2-fluorophenoxy)acetic acid]
- activation at 0.1 µM (hGPR40 receptor): 73%

Structure (SMILES): O=C(O)COc1ccc(NCc2cccc(-c3ccccc3F)c2)cc1F [Compound I-4, 2-(4-((2′-fluoro-[1,1′-biphenyl]-3-methylene)amino)-2-fluorophenoxy)acetic acid]
- activation at 0.1 µM (hGPR40 receptor): 65%

Structure (SMILES): CCOc1cc(C)c(-c2cccc(CNc3ccc(OCC(=O)O)cc3)c2)c(C)c1 [Compound I-17, 2-(4-((4′-ethoxy-2′,6′-dimethyl-[1,1′-biphenyl]-3-methylene)amino)phenoxy)acetic acid]
- Agonistic activity at 100 nM (%) (hGPR40 receptor): 70%

Structure (SMILES): Cc1cc(OC(F)(F)F)cc(C)c1-c1cccc(CNc2ccc(OCC(=O)O)cc2)c1 [Compound I-29, 2-(4-((4′-trifluoromethoxy-2′,6′-dimethyl-[1,1′-biphenyl]-3-methylene)amino)phenoxy)acetic acid]
- Agonistic activity at 100 nM (%) (hGPR40 receptor): 62%
